This is an account of results in patent publication US9549932B2, “2-(morpholin-4-yl)-1,7-naphthyridines” (BAYER PHARMA AKTIENGESELLSCHAFT, priority 2014, dated 2017).

Molecules are shown by their SMILES.

The assay has as its target full-length human ATR protein (Homo sapiens (Human), UniProt Q13535). The assay can be described thus: Binding assay ATR (TR-FRET tracer displacement). To be noted: tracer A, TR-FRET; read-out: ATR binding (tracer A) IC50. A digest of the protocol:
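Full-length human GST-ATR co-purified with ATRIP, pre-complexed 30 min at 22 °C with anti-GST-Tb antibody, then pre-bound with compound 10 min. Tracer A or B added (2 µl of 100 nM solution), 30 min at 22 °C.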
A general note: In TR-FRET formats the signal depends on donor and acceptor labels being close together.

full-length human ATR protein, sequence (Q13535 other isoform, or with tags, fused parts or gaps): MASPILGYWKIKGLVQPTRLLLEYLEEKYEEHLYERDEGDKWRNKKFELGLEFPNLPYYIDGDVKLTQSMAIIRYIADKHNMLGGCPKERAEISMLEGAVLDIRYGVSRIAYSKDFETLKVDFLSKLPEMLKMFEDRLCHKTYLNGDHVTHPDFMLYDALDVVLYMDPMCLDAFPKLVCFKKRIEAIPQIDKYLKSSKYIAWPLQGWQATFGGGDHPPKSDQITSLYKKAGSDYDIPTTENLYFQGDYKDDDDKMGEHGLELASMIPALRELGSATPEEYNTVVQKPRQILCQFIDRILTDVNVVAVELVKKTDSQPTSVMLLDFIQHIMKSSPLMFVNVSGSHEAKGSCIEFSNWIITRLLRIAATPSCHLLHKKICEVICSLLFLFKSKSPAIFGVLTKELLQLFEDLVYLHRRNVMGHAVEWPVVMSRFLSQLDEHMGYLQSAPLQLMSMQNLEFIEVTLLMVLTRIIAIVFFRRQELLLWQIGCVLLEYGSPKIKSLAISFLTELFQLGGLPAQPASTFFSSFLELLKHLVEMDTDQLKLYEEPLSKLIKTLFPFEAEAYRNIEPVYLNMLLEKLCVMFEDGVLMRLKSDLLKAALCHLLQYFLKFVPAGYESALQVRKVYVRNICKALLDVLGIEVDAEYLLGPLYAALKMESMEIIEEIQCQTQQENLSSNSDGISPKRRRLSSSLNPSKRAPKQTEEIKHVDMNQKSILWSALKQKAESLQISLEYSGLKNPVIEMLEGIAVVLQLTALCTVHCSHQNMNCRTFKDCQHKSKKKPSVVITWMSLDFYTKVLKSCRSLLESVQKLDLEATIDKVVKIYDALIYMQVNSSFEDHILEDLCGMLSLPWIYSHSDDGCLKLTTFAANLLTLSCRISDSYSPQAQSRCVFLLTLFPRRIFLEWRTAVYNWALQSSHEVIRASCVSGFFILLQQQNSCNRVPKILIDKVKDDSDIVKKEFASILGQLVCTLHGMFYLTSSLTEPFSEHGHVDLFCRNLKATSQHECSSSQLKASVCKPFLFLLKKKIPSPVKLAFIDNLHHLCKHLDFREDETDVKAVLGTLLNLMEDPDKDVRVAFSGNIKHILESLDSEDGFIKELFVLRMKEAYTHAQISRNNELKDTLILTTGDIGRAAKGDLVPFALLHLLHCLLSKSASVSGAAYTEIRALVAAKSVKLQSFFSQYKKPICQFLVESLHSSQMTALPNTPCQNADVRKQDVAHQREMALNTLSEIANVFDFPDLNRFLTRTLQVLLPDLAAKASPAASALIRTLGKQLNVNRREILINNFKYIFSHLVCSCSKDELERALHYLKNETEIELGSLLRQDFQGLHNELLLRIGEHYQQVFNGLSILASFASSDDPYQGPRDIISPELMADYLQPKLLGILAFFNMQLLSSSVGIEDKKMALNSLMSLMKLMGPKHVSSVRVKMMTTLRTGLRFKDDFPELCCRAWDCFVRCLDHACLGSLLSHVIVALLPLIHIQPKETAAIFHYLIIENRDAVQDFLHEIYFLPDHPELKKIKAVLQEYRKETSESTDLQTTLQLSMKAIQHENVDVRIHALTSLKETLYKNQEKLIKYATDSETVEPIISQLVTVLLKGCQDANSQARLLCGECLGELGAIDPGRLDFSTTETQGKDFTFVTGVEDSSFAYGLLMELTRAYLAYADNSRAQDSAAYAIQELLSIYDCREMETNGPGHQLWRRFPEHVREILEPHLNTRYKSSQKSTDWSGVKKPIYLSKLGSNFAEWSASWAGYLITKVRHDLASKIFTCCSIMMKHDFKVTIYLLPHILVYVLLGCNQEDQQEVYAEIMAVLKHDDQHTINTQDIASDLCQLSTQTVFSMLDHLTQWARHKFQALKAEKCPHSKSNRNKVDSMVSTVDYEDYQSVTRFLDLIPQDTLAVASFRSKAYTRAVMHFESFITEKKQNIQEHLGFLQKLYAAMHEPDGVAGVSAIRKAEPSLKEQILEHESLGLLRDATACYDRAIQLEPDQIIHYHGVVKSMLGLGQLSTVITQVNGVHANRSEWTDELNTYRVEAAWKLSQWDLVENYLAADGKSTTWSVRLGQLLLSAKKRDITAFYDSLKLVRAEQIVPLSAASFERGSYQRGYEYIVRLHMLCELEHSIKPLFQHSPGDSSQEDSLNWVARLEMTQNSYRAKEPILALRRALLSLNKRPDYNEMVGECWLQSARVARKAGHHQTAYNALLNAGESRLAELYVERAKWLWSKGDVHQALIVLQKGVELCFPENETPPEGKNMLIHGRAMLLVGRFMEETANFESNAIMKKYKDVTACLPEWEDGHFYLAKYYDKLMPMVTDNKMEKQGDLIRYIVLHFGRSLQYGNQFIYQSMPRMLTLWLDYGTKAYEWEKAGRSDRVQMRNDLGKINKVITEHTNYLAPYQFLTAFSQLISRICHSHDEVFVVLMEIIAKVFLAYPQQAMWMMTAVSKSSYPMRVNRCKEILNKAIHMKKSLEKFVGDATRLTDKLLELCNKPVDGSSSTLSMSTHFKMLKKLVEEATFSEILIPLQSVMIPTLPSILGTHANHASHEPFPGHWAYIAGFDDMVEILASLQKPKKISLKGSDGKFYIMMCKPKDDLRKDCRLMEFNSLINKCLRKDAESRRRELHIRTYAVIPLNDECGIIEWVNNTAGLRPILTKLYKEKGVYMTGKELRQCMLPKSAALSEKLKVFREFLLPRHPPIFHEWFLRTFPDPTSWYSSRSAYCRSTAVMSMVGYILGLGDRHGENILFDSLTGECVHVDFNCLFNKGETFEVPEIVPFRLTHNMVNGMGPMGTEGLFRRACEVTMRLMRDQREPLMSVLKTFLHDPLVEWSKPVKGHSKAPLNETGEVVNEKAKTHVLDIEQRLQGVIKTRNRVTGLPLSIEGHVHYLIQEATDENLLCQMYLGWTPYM
full-length human ATR protein, sequence (Q8WXE1 other isoform, or with tags, fused parts or gaps partner): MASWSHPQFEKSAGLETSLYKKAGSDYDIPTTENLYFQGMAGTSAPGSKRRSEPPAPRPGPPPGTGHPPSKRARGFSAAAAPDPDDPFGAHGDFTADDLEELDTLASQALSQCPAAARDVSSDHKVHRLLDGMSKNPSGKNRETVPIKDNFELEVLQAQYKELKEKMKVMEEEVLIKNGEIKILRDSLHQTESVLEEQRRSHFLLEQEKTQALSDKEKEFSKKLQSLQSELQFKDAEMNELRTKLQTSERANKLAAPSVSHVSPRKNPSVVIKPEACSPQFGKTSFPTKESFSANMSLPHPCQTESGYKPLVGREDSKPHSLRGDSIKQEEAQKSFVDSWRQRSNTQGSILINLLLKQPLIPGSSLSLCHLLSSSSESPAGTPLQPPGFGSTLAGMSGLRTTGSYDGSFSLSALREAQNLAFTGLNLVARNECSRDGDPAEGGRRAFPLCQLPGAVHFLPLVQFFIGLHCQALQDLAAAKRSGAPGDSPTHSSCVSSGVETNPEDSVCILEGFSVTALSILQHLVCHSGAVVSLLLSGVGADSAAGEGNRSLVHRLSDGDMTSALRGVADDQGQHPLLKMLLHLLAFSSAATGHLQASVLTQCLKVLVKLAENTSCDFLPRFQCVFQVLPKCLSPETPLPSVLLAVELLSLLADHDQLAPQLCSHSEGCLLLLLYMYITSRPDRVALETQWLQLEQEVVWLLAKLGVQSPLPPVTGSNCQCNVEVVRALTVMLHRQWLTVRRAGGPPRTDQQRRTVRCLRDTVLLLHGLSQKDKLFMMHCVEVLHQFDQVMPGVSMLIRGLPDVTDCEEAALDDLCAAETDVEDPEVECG

For the compound `Cc1ccccc1-c1cc(N2CCOCC2)nc2c(-c3ccn[nH]3)nccc12` [Example 318, 4-(2-methylphenyl)-2-(morpholin-4-yl)-8-(1H-pyrazol-5-yl)-1,7-naphthyridine], the IC50 amounted to 30.6 nM.

Regarding `Cc1n[nH]cc1-c1cc(N2CCOC[C@H]2C)nc2c(-c3ccn[nH]3)nccc12` [Example 266, 2-[(3R)-3-methylmorpholin-4-yl]-4-(3-methyl-1H-pyrazol-4-yl)-8-(1H-pyrazol-5-yl)-1,7-naphthyridine], the IC50 amounted to 8.31 nM.

In the case of `Cc1sccc1-c1cc(N2CCOC[C@H]2C)nc2c(-c3ccn[nH]3)nccc12` [Example 103, 2-[(3R)-3-methylmorpholin-4-yl]-4-(2-methyl-3-thienyl)-8-(1H-pyrazol-5-yl)-1,7-naphthyridine], the IC50 is 10.1 nM.

In the case of `COc1ccccc1-c1cc(N2CCOCC2)nc2c(-c3ccn[nH]3)nccc12` [Example 300, 4-(2-methoxyphenyl)-2-(morpholin-4-yl)-8-(1H-pyrazol-5-yl)-1,7-naphthyridine], the IC50 stood at 181 nM. With `C[C@@H]1COCCN1c1cc(OCCCCN)c2ccnc(-c3ccn[nH]3)c2n1` [Example 57, 4-({2-[(3R)-3-methylmorpholin-4-yl]-8-(1H-pyrazol-5-yl)-1,7-naphthyridin-4-yl}oxy)butan-1-amine], the IC50 turned out to be 230 nM. The value for `CCCCC(C)(O)c1cc(N2CCOC[C@H]2C)nc2c(-c3ccn[nH]3)nccc12` (stereo partly drawn) [Example 284, 2-{2-[(3R)-3-methylmorpholin-4-yl]-8-(1H-pyrazol-5-yl)-1,7-naphthyridin-4-yl}hexan-2-ol] was 41.6 nM. The figure for `Cc1noc(C)c1-c1cc(N2CCOC[C@H]2C)nc2c(-c3ccn[nH]3)nccc12` [Example 105, 4-(3,5-dimethyl-1,2-oxazol-4-yl)-2-[(3R)-3-methylmorpholin-4-yl]-8-(1H-pyrazol-5-yl)-1,7-naphthyridine] is 8.67 nM; for `C[C@@H]1COCCN1c1cc(-c2cccnc2F)c2ccnc(-c3ccn[nH]3)c2n1` [Example 89, 4-(2-fluoropyridin-3-yl)-2-[(3R)-3-methylmorpholin-4-yl]-8-(1H-pyrazol-5-yl)-1,7-naphthyridine] it is 8.11 nM; for `Oc1ccc(-c2cc(N3CCOCC3)nc3c(-c4ccn[nH]4)nccc23)cn1` [Example 23, 5-[2-(morpholin-4-yl)-8-(1H-pyrazol-5-yl)-1,7-naphthyridin-4-yl]pyridin-2(1H)-one] it is 443 nM. The figure for `C[C@@H]1COCCN1c1cc(-c2ccnn2CCF)c2ccnc(-c3ccn[nH]3)c2n1` [Example 159, 4-[1-(2-fluoroethyl)-1H-pyrazol-5-yl]-2-[(3R)-3-methylmorpholin-4-yl]-8-(1H-pyrazol-5-yl)-1,7-naphthyridine] is 16.5 nM; for `COC1(C)CN(c2cc(N3CCOCC3)nc3c(-c4ccn[nH]4)nccc23)C1` [Example 184, 4-(3-methoxy-3-methylazetidin-1-yl)-2-(morpholin-4-yl)-8-(1H-pyrazol-5-yl)-1,7-naphthyridine] it is 763 nM; for `C[C@@H]1COCCN1c1cc(C2CCCN(C)C2)c2ccnc(-c3ccn[nH]3)c2n1` (stereo partly drawn) [Example 244, 2-[(3R)-3-methylmorpholin-4-yl]-4-[1-methylpiperidin-3-yl]-8-(1H-pyrazol-5-yl)-1,7-naphthyridine] it is 159 nM. As for `Cc1nc(F)ccc1-c1cc(N2CCOC[C@H]2C)nc2c(-c3ccn[nH]3)nccc12` [Example 97, 4-(6-fluoro-2-methylpyridin-3-yl)-2-[(3R)-3-methylmorpholin-4-yl]-8-(1H-pyrazol-5-yl)-1,7-naphthyridine], the IC50 was 13.9 nM. The value for `C[C@@H]1COCCN1c1cc(-c2ccn(CCF)n2)c2ccnc(-c3ccn[nH]3)c2n1` [Example 158, 4-[1-(2-fluoroethyl)-1H-pyrazol-3-yl]-2-[(3R)-3-methylmorpholin-4-yl]-8-(1H-pyrazol-5-yl)-1,7-naphthyridine] was 13.5 nM. For `C[C@@H]1COCCN1c1cc(-c2ccns2)c2ccnc(-c3ccn[nH]3)c2n1` [Example 121, 2-[(3R)-3-methylmorpholin-4-yl]-8-(1H-pyrazol-5-yl)-4-(1,2-thiazol-5-yl)-1,7-naphthyridine], the IC50 is 17.4 nM. The value for `c1cc(-c2nccc3c(-c4ccsc4)cc(N4CCOCC4)nc23)[nH]n1` [Example 372, 2-(morpholin-4-yl)-8-(1H-pyrazol-5-yl)-4-(thiophen-3-yl)-1,7-naphthyridine] was 134 nM.

Turning to `C[C@@H]1COCCN1c1cc(-c2cccnc2O)c2ccnc(-c3ccn[nH]3)c2n1` [Example 167, 3-{2-[(3R)-3-methylmorpholin-4-yl]-8-(1H-pyrazol-5-yl)-1,7-naphthyridin-4-yl}pyridin-2-ol], the IC50 amounted to 408 nM. The figure for `c1c[nH]c(-c2cc(N3CCOCC3)nc3c(-c4ccn[nH]4)nccc23)c1` [Example 211, 2-(morpholin-4-yl)-8-(1H-pyrazol-5-yl)-4-(1H-pyrrol-2-yl)-1,7-naphthyridine] is 547 nM; for `C[C@@H]1COCCN1c1cc(C2=CCN(C)CC2)c2ccnc(-c3ccn[nH]3)c2n1` [Example 243, 2-[(3R)-3-methylmorpholin-4-yl]-4-(1-methyl-1,2,3,6-tetrahydropyridin-4-yl)-8-(1H-pyrazol-5-yl)-1,7-naphthyridine] it is 36.5 nM; for `c1ccc(-c2ccccc2-c2cc(N3CCOCC3)nc3c(-c4ccn[nH]4)nccc23)cc1` [Example 345, 4-(biphenyl-2-yl)-2-(morpholin-4-yl)-8-(1H-pyrazol-5-yl)-1,7-naphthyridine] it is 55.6 nM. The value for `NC(=O)c1cccc(-c2cc(N3CCOCC3)nc3c(-c4ccn[nH]4)nccc23)c1` [Example 295, 3-[2-(morpholin-4-yl)-8-(1H-pyrazol-5-yl)-1,7-naphthyridin-4-yl]benzamide] was 113 nM; that for `C[C@@H]1COCCN1c1cc(OCCN)c2ccnc(-c3ccn[nH]3)c2n1` [Example 55, 2-({2-[(3R)-3-methylmorpholin-4-yl]-8-(1H-pyrazol-5-yl)-1,7-naphthyridin-4-yl}oxy)ethanamine] was 162 nM. Regarding `COc1ccc(Sc2cc(N3CCOCC3)nc3c(-c4ccn[nH]4)nccc23)cc1` [Example 213], the IC50 turned out to be 53.5 nM. With `COc1cc(OC)cc(-c2cc(N3CCOCC3)nc3c(-c4ccn[nH]4)nccc23)c1` [Example 307, 4-(3,5-dimethoxyphenyl)-2-(morpholin-4-yl)-8-(1H-pyrazol-5-yl)-1,7-naphthyridine], the IC50 was 189 nM. The figure for `CC[S+]([O-])c1cc(N2CCOCC2)nc2c(-c3ccn[nH]3)nccc12` (stereo not drawn) [Example 195, 4-ethylsulfinyl-2-(morpholin-4-yl)-8-(1H-pyrazol-5-yl)-1,7-naphthyridine] is 71.4 nM; for `C[C@@H]1COCCN1c1cc(-c2cn[nH]c2)c2ccnc(-c3ccn[nH]3)c2n1` [Example 269, 2-[(3R)-3-methylmorpholin-4-yl]-4-(1H-pyrazol-4-yl)-8-(1H-pyrazol-5-yl)-1,7-naphthyridine] it is 12.7 nM; for `C[C@@H]1COCCN1c1cc(-c2cccc(C(C)(C)O)c2)c2ccnc(-c3ccn[nH]3)c2n1` [Example 168, 2-(3-{2-[(3R)-3-methylmorpholin-4-yl]-8-(1H-pyrazol-5-yl)-1,7-naphthyridin-4-yl}phenyl)propan-2-ol] it is 530 nM.

For orientation: IC50 means the concentration needed to halve the response being measured.
